Laboratory results reported in patent US11040026B2, “Muscarinic M1 receptor positive allosteric modulators” (SUVEN LIFE SCIENCES LIMITED, priority 2016, dated 2021).

Tests used:
Male Wistar rats [1] = test: Object recognition task model; type: in vivo; conditions: rat, p.o.; for Exploration time mean ± S.E.M, Familiar object / Exploration time mean ± S.E.M, Novel object: choice trial 24 hours after T1
Method: Object Recognition Task Model
(§1) Male Wistar rats (8-10 weeks old) were used as experimental animals. Four animals were housed in each cage. Animals were kept on 20% food deprivation from a day prior to experimentation. Water was provided ad libitum throughout the experiment. Animals were maintained on a 12 hours light/dark cycle in temperature and humidity controlled room. The experiment was carried out in an circular or square arena made up of acrylic. Rats were habituated to individual arenas for up to 1 hour in the absence of any objects on day 1.
One group of 12 rats received vehicle and another set of animals received test compounds, before familiar (T1) and choice (T2) trials. During the familiarization phase, (T1), the rats were placed individually in the arena for 3 minutes, in which two identical objects (a1 and a2) were positioned 10 cm from the wall. 24 hours after T1, trial for long-term memory test was performed. The same rats were placed in the same arena as they were placed in T1 trial. During the choice phase (T2) rats were allowed to explore the arena for 3 minutes in presence of a copy of familiar object (a3) and one novel object (b). During the T1 and T2 trial, explorations of each object (defined as sniffing, licking, chewing or having moving vibrissae whilst directing the nose towards the object at a distance of less than 1 cm) were recorded using stopwatch.
T1 is the total time spent exploring the familiar objects (a1+a2).
T2 is the total time spent exploring the familiar object and novel object (a3+b).
The object recognition test was performed as described in Behav. Brain Res., 1988, 31, 47-59.

[2] = Rodent pharmacokinetic study; type: in vivo, Male Wistar rats; conditions: rat; for AUC(0-t) / clearance / half-life / Cmax: male, Wistar, plasma; for F: oral (gavage) 3 mg/kg vs intravenous 1 mg/kg
Method: Rodent Pharmacokinetic Study
Male Wistar rats (260±50 grams) were used as experimental animals. Animals were housed individually in polypropylene cage. Two days prior to study, male Wistar rats were anesthetized with isoflurane for surgical placement of jugular vein catheter. Rats were randomly divided for oral (3 mg/kg) and intravenous (1 mg/kg) dosing (n=3/group) and fasted overnight before oral dosing (p.o.). However, rats allocated to intravenous dosing food and water was provided ad libitum.
At pre-determined point, blood was collected through jugular vein and replenished with an equivalent volume of normal saline. Collected blood was transferred into a labeled eppendorf tube containing 10 μL of heparin as an anticoagulant. Typically blood samples were collected at following time points: 0.08, 0.25, 0.5, 1, 2, 4, 6, 8, and 24 hours post dose. Blood was centrifuged at 4000 rpm for 10 minutes. Plasma was separated and stored frozen at −80° C. until analysis. The concentrations of the test compounds were quantified in plasma by qualified LC-MS/MS method using suitable extraction technique. The test compounds were quantified in the calibration range around 1-1000 ng/mL in plasma. Study samples were analyzed using calibration samples in the batch and quality control samples spread across the batch.
Pharmacokinetic parameters Cmax, AUCt, T1/2, Clearance and Bioavailability (F) were calculated by non-compartmental model using standard non-compartmental model by using Phoenix WinNonlin 6.0.4 version Software package.

[3] = Rodent brain penetration study; type: in vivo, Male Wistar rats; conditions: male, Wistar, brain and plasma, po; rat, 3 mg/kg, p.o., brain-plasma ratio; read-out: Single dose Rat Brain Penetration (Cb/Cp) at 3 mg/kg, p.o.
Method: Rodent Brain Penetration Study
Male Wistar rats (260±40 grams) were used as experimental animals. Three animals were housed in each cage. Animals were given water and food ad libitum throughout the experiment and maintained on a 12 hours light/dark cycle.
Brain penetration was determined in discrete manner in rats. One day prior to dosing day, male Wistar rats were acclimatized and randomly grouped according to their weight. At each time point (0.50, 1 and 2 hours) n=3 animals were used.
The test compounds were suitably preformulated and administered orally at (free base equivalent) 3 mg/kg. Blood samples were removed via cardiac puncture by using isoflurane anesthesia. The animals were sacrificed to collect brain tissue. Plasma was separated and brain samples were homogenized and stored frozen at −20° C. until analysis. The concentrations of the test compounds in plasma and brain were determined using LC-MS/MS method.
The test compounds were quantified in plasma and brain homogenate by qualified LC-MS/MS method using suitable extraction technique. The test compounds were quantified in the calibration range of 1-500 ng/mL in plasma and brain homogenate. Study samples were analyzed using calibration samples in the batch and quality control samples spread across the batch. Extent of brain-plasma ratio (Cb/Cp) was calculated

muscarinic M1 receptor [4] = target: T1, muscarinic M1 receptor (Homo sapiens, UniProt P11229); test: Allosteric potency EC50 for muscarinic M1 receptor (CHO pCRE-Luc reporter assay); type: cell-based; conditions: in presence of EC20 of acetylcholine; CHO cells, luciferase reporter, 4 hours
T1 sequence (P11229 1-460): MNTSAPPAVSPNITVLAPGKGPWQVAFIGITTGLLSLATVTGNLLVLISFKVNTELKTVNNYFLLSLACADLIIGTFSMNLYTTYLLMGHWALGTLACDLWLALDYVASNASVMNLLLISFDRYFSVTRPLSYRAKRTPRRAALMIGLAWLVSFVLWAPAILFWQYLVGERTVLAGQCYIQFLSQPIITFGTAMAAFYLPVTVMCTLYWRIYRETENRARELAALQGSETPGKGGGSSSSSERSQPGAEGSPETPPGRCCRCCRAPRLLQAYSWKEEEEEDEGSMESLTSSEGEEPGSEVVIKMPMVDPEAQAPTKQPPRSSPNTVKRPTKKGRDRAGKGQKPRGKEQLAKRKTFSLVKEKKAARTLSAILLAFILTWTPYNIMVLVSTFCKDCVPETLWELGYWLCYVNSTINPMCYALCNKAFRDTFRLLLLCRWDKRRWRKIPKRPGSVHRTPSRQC
Procedure, shortened: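 Stable CHO line with recombinant human M1 and cAMP-response-element luciferase reporter, serum-starved overnight. Test compounds at increasing concentrations added with an EC20 of acetylcholine, 4 h at 37 °C; luminescence read after lysis. EC50 = concentration giving 50% stimulation of luciferase activity in the presence of EC20 acetylcholine.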

Male Wistar rats [5] = test: Object recognition task model (combination study); type: in vivo; conditions: rat, combination (co-treatment) with donepezil; FIG. 1
Method: Object Recognition Task Model (Combination Study)
The cognition enhancing properties of compounds of this invention were estimated by using this model.
as §1, with “open field” for “circular or square arena”, “arenas (open field)” for “arenas”, “20 minutes” for “up to 1 hour”
One group of 12 rats received vehicle and another set of animals received compound of the formula (I) or Donepezil or compound of formula (I) and Donepezil, before the familiar (T1) and choice (T2) trials. During the familiarization phase, (T1), the rats were placed individually in the arena for 3 minutes, in which two identical objects (a1 and a2) were positioned 10 cm from the wall. 24 hours after T1, trial for long-term memory test was performed. […] During the T1 and T2 trial, explorations of each object (defined as sniffing, licking, chewing or having moving vibrissae whilst directing the nose towards the object at a distance of less than 1 cm) were recorded using stopwatch. […]

[6] = cited from earlier work
muscarinic M1 receptor [7] = target: T1, muscarinic M1 receptor; conditions: literature report; cited from earlier work

Row | Compound | AUC(0-t) ([2]; intravenous (bolus), 1 mg/kg) [µg·h/mL] | clearance ([2]; intravenous (bolus), 1 mg/kg) [L/h/kg] | half-life ([2]; intravenous (bolus), 1 mg/kg) [h] | AUC(0-t) ([2]; oral (gavage), 3 mg/kg) [µg·h/mL] | Cmax ([2]; oral (gavage), 3 mg/kg) [µg/mL] | half-life ([2]; oral (gavage), 3 mg/kg) [h] | F [2] [%] | Kp [3] | EC50 (muscarinic M1 receptor [4]) [µM] | Inference (Male Wistar rats [1]; 3 mg/kg) | Exploration time mean ± S.E.M, Familiar object (Male Wistar rats [1]; 3 mg/kg) [s] | Exploration time mean ± S.E.M, Novel object (Male Wistar rats [1]; 3 mg/kg) [s] | Inference (Male Wistar rats [1]; 10 mg/kg) | Exploration time mean ± S.E.M, Familiar object (Male Wistar rats [1]; 10 mg/kg) [s] | Exploration time mean ± S.E.M, Novel object (Male Wistar rats [1]; 10 mg/kg) [s] | Procognitive effect in object recognition task (Male Wistar rats [5]) | Efficacy in preclinical models of cognition ([6]; Psychopharmacology, 2013, 225(1), 21-30) | Gastrointestinal side effects ([6]; at doses equal to or less than a fivefold margin from the minimum effective dose required to improve cognition) | Selectivity for muscarinic M1 receptor over the other muscarinic receptor subtypes (muscarinic M1 receptor [7])
1 | Cn1ccc2c(Cc3ccc(Cl)nc3)cc(C(=O)N[C@H]3CCCC[C@@H]3O)nc21 [Example 18, N-[(1S,2S)-2-Hydroxycyclohexyl]-4-(2-chloropyridin-5-ylmethyl)-1-methyl-1H-pyrrolo[2,3-b]pyridine-6-carboxamide] | 0.853 ± 0.109 | 1.2 ± 0.18 | 1.3 ± 0.2 | 2.71 ± 0.769 | 0.887 ± 0.074 | 3.6 ± 0.1 | 106 ± 30 | 0.27 ± 0.06 | 0.038 | – | – | – | Active | 8.00 ± 2.88 | 14.38 ± 1.62 | – | – | – | –
2 | Cn1ccc2c(Cc3ccnc(F)c3)cc(C(=O)N[C@H]3CCCC[C@@H]3O)nc21 [Example 1, N-[(1S,2S)-2-Hydroxycyclohexyl]-4-(2-fluoropyridin-4-ylmethyl)-1-methyl-1H-pyrrolo[2,3-b]pyridine-6-carboxamide] | 0.796 ± 0.041 | 2.04 ± 0.18 | 1.3 ± 0.3 | 0.875 ± 0.215 | 0.373 ± 0.053 | 1.3 ± 0.2 | 59 ± 14 | 0.33 ± 0.02 | 1.48 | Active | 12.67 ± 0.95 | 17.98 ± 1.77 | – | – | – | Procognitive effects were observed | – | – | –
3 | N#CC1(c2ccccn2)CCN(Cc2cc(C(=O)O)c(=O)n3ccccc23)CC1 [PQCA, 1-{[4-cyano-4-(pyridine-2-yl)piperidin-1-yl]methyl}-4-oxo-4H-quinolizine-3-carboxylic acid] | – | – | – | – | – | – | – | – | – | – | – | – | – | – | – | – | efficacious | no gastrointestinal side effects | highly selective
4 | Cn1ccc2c(Cc3ccc(F)cc3)cc(C(=O)N[C@@H]3COCC[C@@H]3O)nc21 (single isomer, unassigned; isomer-i) [Example 65, cis-N-(4-Hydroxytetrahydropyran-3-yl)-4-(4-fluorobenzyl)-1-methyl-1H-pyrrolo[2,3-b]pyridine-6-carboxamide (Isomer-I)] | – | – | – | – | – | – | – | 0.32 | – | – | – | – | – | – | – | – | – | – | –

Second part, led by results:

Row | AUC(0-t) ([2]; intravenous (bolus), 1 mg/kg) [µg·h/mL] | clearance ([2]; intravenous (bolus), 1 mg/kg) [L/h/kg] | half-life ([2]; intravenous (bolus), 1 mg/kg) [h] | AUC(0-t) ([2]; oral (gavage), 3 mg/kg) [µg·h/mL] | Cmax ([2]; oral (gavage), 3 mg/kg) [µg/mL] | half-life ([2]; oral (gavage), 3 mg/kg) [h] | F [2] [%] | Kp [3] | EC50 (muscarinic M1 receptor [4]) [µM] | Compound | Inference (Male Wistar rats [1]; 3 mg/kg) | Exploration time mean ± S.E.M, Familiar object (Male Wistar rats [1]; 3 mg/kg) [s] | Exploration time mean ± S.E.M, Novel object (Male Wistar rats [1]; 3 mg/kg) [s] | Inference (Male Wistar rats [1]; 10 mg/kg) | Exploration time mean ± S.E.M, Familiar object (Male Wistar rats [1]; 10 mg/kg) [s] | Exploration time mean ± S.E.M, Novel object (Male Wistar rats [1]; 10 mg/kg) [s] | Procognitive effect in object recognition task (Male Wistar rats [5]) | Efficacy in preclinical models of cognition ([6]; Psychopharmacology, 2013, 225(1), 21-30) | Gastrointestinal side effects ([6]; at doses equal to or less than a fivefold margin from the minimum effective dose required to improve cognition) | Selectivity for muscarinic M1 receptor over the other muscarinic receptor subtypes (muscarinic M1 receptor [7])
5 | 0.791 ± 0.011 | 1.26 | 0.7 ± 0.1 | 1.09 ± 0.102 | 0.825 ± 0.041 | 0.5 ± 0.2 | 46 ± 4 | 0.63 ± 0.05 | 0.131 | O=C(N[C@H]1CCCC[C@@H]1O)c1cc(Cc2ccc(F)cc2)c2c(n1)OCCO2 [Example 103, N-[(1S,2S)-2-Hydroxycyclohexyl]-8-(4-fluorobenzyl)-2,3-dihydro-[1,4]dioxino[2,3-b]pyridine-6-carboxamide] | Active | 12.20 ± 1.59 | 19.17 ± 3.01 | – | – | – | – | – | – | –
6 | 0.593 ± 0.079 | 1.68 ± 0.24 | 1.2 ± 0.3 | 0.234 ± 0.076 | 0.069 ± 0.012 | 3.5 ± 3.3 | 13 ± 4 | 1.37 ± 0.1 | 0.407 | CN1CCOc2c(Cc3ccc(F)cc3)cc(C(=O)N[C@H]3CCCC[C@@H]3O)nc21 [Example 120, N-[(1S,2S)-2-Hydroxycyclohexyl]-8-(4-fluorobenzyl)-4-methyl-2H-pyrido[3,2-b][1,4]oxazine-6-carboxamide] | – | – | – | Active | 10.48 ± 1.02 | 15.43 ± 1.23 | – | – | – | –
7 | 0.787 ± 0.13 | 1.26 ± 0.18 | 1.1 ± 0.1 | 0.526 ± 0.126 | 0.306 ± 0.066 | 0.5 | 22 ± 5 | 0.52 ± 0.05 | – | CN1CCOc2c(Cc3ccc(F)cc3)cc(C(=O)N[C@@H]3CCOC[C@H]3O)nc21 (single isomer, unassigned; isomer-ii) [Example 124, trans-N-(3-Hydroxytetrahydropyran-4-yl)-8-(4-fluorobenzyl)-4-methyl-2H-pyrido[3,2-b][1,4]oxazine-6-carboxamide (Isomer-II)] | – | – | – | – | – | – | – | – | – | –
8 | 0.224 ± 0.066 | 4.74 ± 1.62 | 1.5 ± 0.1 | 0.219 ± 0.07 | 0.097 ± 0.039 | 0.7 ± 0.3 | 32 ± 10 | 0.15 ± 0.01 | 0.241 | Cl.O=C(N[C@H]1CCCC[C@@H]1O)c1cc(Cc2ccc(F)cc2)c2c(n1)CNCC2 [Example 87, N-[(1S,2S)-2-Hydroxycyclohexyl]-4-(4-fluorobenzyl)-5,6,7,8-tetrahydro[1,7]naphthyridine-2-carboxamide Hydrochloride] | – | – | – | – | – | – | – | – | – | –
